# Results published in article PMC7179450, “Primary Human Hepatocytes, But not HepG2 or Balb/c 3T3 Cells, Efficiently Metabolize Salinomycin and Are Resistant to Its Cytotoxicity” (Molecules, 2020).
# Where two headings read alike, the source gives them in different places.
# Columns and labels:
# HepG2 cells [1] = assay: Biotransformation of SAL and metabolites in HepG2 (LC-MS/MS); assay type: in vitro ADME, human; settings: HepG2, only after induction with prednisolone, 24 h (Figure 2C)
# Experimental: The HepG2 cell line was purchased from the American Type Culture Collection (ATCC® HB-8065™). The cells were cultured in Minimum Essential Medium Eagle (MEME) (Sigma–Aldrich Co. (St. Louis, MO, USA)). Normal murine embryonic fibroblasts, Balb/c 3T3 clone A31 cell line (gift from Department of Swine Diseases of the National Veterinary Research Institute in Pulawy) was cultured in Dulbecco’s Modified Eagle’s Medium (DMEM) (Invitrogen Corporations (Paisley, UK)). The media were supplemented with 10% BCS (Balb/c 3T3), 10% FBS (HepG2), 1% L-glutamine, and 1% antibiotic solution. The cells were maintained in 75 cm^2 cell culture flasks in humidified incubator at 37 °C, in an atmosphere of 5% CO2. […] The initial cell viability was determined with the trypan blue exclusion test. […]
# (§1) The medium samples from microplate wells were collected for identifying SAL metabolites and normalized to a cell number. An aliquot of 200 µL of each sample was measured to Eppendorf tube. […] The dry residue was reconstituted in 50% acetonitrile and analyzed with LC-MS/MS. […]
# (§2) SAL (m/z 773.4 to m/z 431.3) was monitored in multiple reaction monitoring (MRM) modes. […]
# (§3) The signals for further analysis were selected with the LightSight 2.3 software. […] These MRM transitions (with 20 chromatographic peaks) were then quantified with Multiquant 2.1. software. Quantitative analysis was performed for SAL. […]
# HepG2 cells [2] = assay: TPC assay in HepG2; assay type: cell-based, human; settings: for EC50: Homo sapiens, read-out: EC50 (effective concentration)
# Experimental: The HepG2 cell line was purchased from the American Type Culture Collection (ATCC® HB-8065™). The cells were cultured in Minimum Essential Medium Eagle (MEME) (Sigma–Aldrich Co. (St. Louis, MO, USA)). Normal murine embryonic fibroblasts, Balb/c 3T3 clone A31 cell line (gift from Department of Swine Diseases of the National Veterinary Research Institute in Pulawy) was cultured in Dulbecco’s Modified Eagle’s Medium (DMEM) (Invitrogen Corporations (Paisley, UK)). The media were supplemented with 10% BCS (Balb/c 3T3), 10% FBS (HepG2), 1% L-glutamine, and 1% antibiotic solution. The cells were maintained in 75 cm^2 cell culture flasks in humidified incubator at 37 °C, in an atmosphere of 5% CO2. The medium was refreshed every two or three days and the cells were trypsinized by 0.25% trypsin–0.02% EDTA after reaching 70–80% confluence. The initial cell viability was determined with the trypan blue exclusion test. Single cell suspensions were prepared and adjusted to a density of 2 × 10^5 cell/mL (HepG2) and 1 × 10^5 cell/mL (Balb/c 3T3). The cell suspension was transferred to 96-well plates (100 µL/well) and incubated for 24 h before exposure to the studied drugs.
# The concentration ranges of the drugs were chosen according to their solubility and their plasma level. Each drug was dissolved in DMSO. The final concentration of DMSO was 0.1% or 0.2% in the medium for both samples and corresponding controls. […] All drug solutions in medium were freshly prepared and protected from light. SAL was tested in seven concentrations from 0.39 to 25 µg/mL. Tiamulin was added in two concentrations (1 and 10 µg/mL) or just one concentration (1 µg/mL) to cell lines or human hepatocytes, respectively. […] The cytotoxicity was assessed after 24 and 48 h of exposure of cell lines or after 12 and 24 h exposure of PHH. […]
# The assay was based on staining total cellular protein [14]. […] The absorbance was measured at 595 nm in a microplate reader using blank as a reference. Cytotoxicity was expressed as a percentage of the negative control (0.1% or 0.2% DMSO).
# [3] = system: primary human hepatocytes (PHH); assay: Biotransformation of SAL and metabolites in medium of PHH (LC-MS/MS); assay type: in vitro ADME
# Experimental: Cryopreserved PHH were purchased from the Primacyt GmbH (Schwerin, Germany). Two different lots were chosen based on CYP activity. The donor was a person. The post-thaw viability was 94.6% for lot HH160531 (used in two repetitions) and 85.0% for lot HH130805. The initial cell viability was determined with the trypan blue exclusion test. The cells were thawed and purified using the Plating and Thawing Kit (Primacyt GmbH). Purified hepatocytes were resuspended in Hepatocyte Plating Medium (Primacyt GmbH) and seeded on collagen-coated 96-well plates at a density of 9 × 10^5 cell/mL and incubated at 37 °C with 5% CO2. After 6 h of incubation, the medium was removed and the cells were washed with PBS. […]
# as §1, §2, §3
smiles,measurement,setting,value
"CC[C@@H](C(=O)[C@@H](C)[C@@H](O)[C@H](C)[C@@H]1O[C@@H]([C@@H](CC)C(=O)O)CC[C@@H]1C)[C@H]1O[C@]2(C=C[C@@H](O)[C@]3(CC[C@@](C)([C@H]4CC[C@](O)(CC)[C@H](C)O4)O3)O2)[C@H](C)C[C@@H]1C [SAL, salinomycin]",percentage of SAL metabolised,HepG2 cells [1],ca. 20%
same,lowest concentration with significant effect on total protein content,"HepG2 cells [2]; HepG2, 24 h, SAL alone or in both drug combinations (Figure S2)",0.39 µg/mL
same,EC50,"HepG2 cells [2]; HepG2, 24 h",13.3 ± 2.5 µg/mL
same,EC50,"HepG2 cells [2]; HepG2, 48 h",11.3 ± 1.3 µg/mL
same,"SAL metabolised, share of the dose",[3]; PHH,up to 90%
same,maximum percentage of bio-transformed SAL,[3]; PHH co-exposed with tiamulin,25%
